“Also recorded” adds a separate entry of the source. No end group written: not given here.
Key:
[1] = target: T1, Aβ(1-42) globulomer formation (Homo sapiens, UniProt P05067); test: Induction of Aβ(1-42) globulomer formation by fatty acids replacing SDS (SDS-PAGE); type: biochemical; settings: fatty acid in place of SDS, neutral pH
T1 construct: Aβ(1-42) synthetic peptide (Cat. No. H-1368, Bachem, Switzerland); purchased Bachem H-1368; host or cells: chemical synthesis; oligomerised in house (HFIP, DMSO, 0.2% SDS or 0.5% fatty acid, dilution)
T1 sequence (P05067 672-713 limits assumed): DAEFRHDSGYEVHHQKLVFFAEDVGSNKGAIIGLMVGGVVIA
Description: Lanes: (1) control without inducing agent, (2) positive control with 0.2% SDS, (3) 0.5% lauric acid (12:0), (4) 0.5% oleic acid (18:1), (5) linoleic acid […], (6) eicosapentanoic acid (20:5), (7) docosatetranoic acid (22:4), (8) docosahexanoic acid (22:6), (9) positive control with 0.2% SDS, (10) 1% arachidonic acid. Yields of Aβ(1-42) globulomer (g, indicated with arrowheads) differ between various fatty acids;
A solution of Aβ(1-42) globulomers was prepared as described in example 5a of WO2004/067561. Briefly, Aβ(1-42) synthetic peptide (Cat. No. H-1368, Bachem, Switzerland) was suspended in 1,1,1,3,3,3-hexafluoro-2-propanol (HFIP) at […] and incubated for complete solubilization under shaking at 37° C. for 1.5 h. HFIP was removed by evaporation in a SpeedVac and Aβ(1-42) resuspended at a concentration of 5 mM in dimethyl sulfoxide (DMSO) and 20 sec sonicated. The HFIP pretreated Aβ(1-42) was diluted in phosphate buffered solution (PBS) (20 mM NaH2PO4, 140 mM NaCl, pH 7.4) to 400 μM and 1/10 volume 2% SDS (in H2O) added (final concentration of 0.2% sodium dodecyl sulfate (SDS)).

[2] = tested on: hippocampal neurons; test: Binding of Aβ forms to cultured hippocampal neurons (immunofluorescence); type: cell-based, rat
Description: (§1) Hippocampal cells from rat brain (QBM Cell Science, Canada) were cultured in 24-well plates on poly-L-lysine coated coverslips (BD Biosciences, Germany) in Neurobasal medium with B27 supplement (Invitrogen, Germany) at 37° C., 5% 002. To some cultures mitosis inhibitors (35 μg/ml uridine, 15 μg/ml 5-fluoro-2′-deoxyuridine) were added at DIV6 to prevent an overgrowing with glia. Unless otherwise stated hippocampal cells were used at DIV13-14.
Cells were rinsed three times with 1 ml medium and fixed with 3.7% buffered formaldehdye (Accustain, Sigma, Germany). Unspecific binding sites were blocked by incubation with 10% normal goat serum in PBS (pH 7.4) for 90 min at room temperature to which 0.1% Triton X-100 was added in the case of intracellular counterstaining. […] After each antibody incubation cells were washed three times with PBS and finally mounted in ProLong antifade reagent (Molecular Probes, Germany).

[3] = In vitro stability in PBS at different temperatures, SDS-PAGE; type: physicochemical
Description: The sample at 0.5 mg/ml in 20 mM NaH2PO4; 140 mM NaCl; pH 7.4 was incubated at room temperature and 37° C. for 1 day and 4 days, respectively. An aliquot of 10 μl of the samples was analyzed by SDS-PAGE.
An aliquot of 100 μl of each of the samples was analyzed by SDS-PAGE.

[4] = Intracranial injection in rats: in vivo binding and tissue penetration; settings: rat
Description: For electrophysiological and histological studies, male Sprague-Dawley rats were obtained from Janvier (France) at an age of about 8 weeks.
The rats (260-430 g) were anesthetized with pentobarbital (60 mg/kg i.p.; Narcoren) and fixed in a stereotaxic apparatus according to Paxinos and Watson^36. […] A total volume of 4.3 μL was infused by a 10 μL Hamilton syringe attached to a motorized micropump (WPI, Germany) during 5 min with the cannula being left in place for additional 2 min. […] The infusion was applied via a 10 μL Hamilton syringe during 5 min with the cannula being left in place for additional 5 min.
Therefore, rats were deeply anesthetized with Narcoren. […] Then, the rats were transcardially perfused with 10 mM PBS (pH 7.2) for 5 min, followed by 4% paraformaldehyde (PFA) in PBS. The brains were removed, postfixed overnight in 4% PFA in PBS containing 30% sucrose and transferred into 30% sucrose in PBS for cryoprotection.
A Cy3-labeled donkey anti-mouse antibody (Jackson Laboratories) was used for fluorescence labelling for 1 h. Between the steps and at the end, sections were thoroughly washed in TBST three times for 5 min, after which they were mounted onto glass slides, air-dried and cover-slipped with Vectashield hardest mounting medium containing DAPI (Vector Laboratories) to visualize cell nuclei. All incubations were performed at room temperature. Some sections were also stained with 0.05% thioflavine S (Sigma, Germany) in 50% ethanol for 10 min, followed by two rinses of 100% ethanol for 5 min before embedding in Vectashield. Analysis of labelling was performed under a confocal fluorescence microscope (Zeiss LSM 510 Meta, Germany).

[5] = tested on: neuronal cell-lines; test: Binding of Aβ(1-42) globulomer to neuronal cell-lines; type: cell-based; settings: data not shown
[6] = tested on: glia; test: Binding of Aβ(1-42) globulomer to glia in hippocampal cultures; type: cell-based, rat; settings: hippocampal preparation, GFAP positive cells
Description: as §1, with “DIV13-14. When Aβ-forms were added, 750 μL fresh 37° C. warm medium containing the Aβ-forms were exchanged of the total 1 ml. Incubation took place for 15 min at 37° C., 5% CO2.” for “DIV13-14.”
Cells were rinsed three times with 1 ml medium and fixed with 3.7% buffered formaldehdye (Accustain, Sigma, Germany). Unspecific binding sites were blocked by incubation with 10% normal goat serum in PBS (pH 7.4) for 90 min at room temperature to which 0.1% Triton X-100 was added in the case of intracellular counterstaining. Primary antibodies (anti Aβ 6E10 (Signet Laboratories, USA), 1:2000; anti GFAP (Dako Cytomation, Germany), 1:2500; anti MAP2 (Chemicon International, Germany), 1:1000) and secondary antibodies (Alexa 488, 1:500; Alexa 635, 1:500; Molecular Probes, Germany) were subsequently incubated for 2 h at room temperature in 10% normal goat serum in PBS (pH 7.4). […]

[7] = tested on: long-term potentiation; test: Long-term potentiation in rat brain slices (CA1 field potentials); type: cell-based
Description: Slices were prepared from male Sprague-Dawley rats (7-8 weeks old). Isolated hemispheres were trimmed and then cut using a vibratome. Slices ([…]) were directly transferred to an interface recording chamber and continuously perfused at 33° C. with oxygenated artificial CSF (aCSF: 118 mM NaCl, 1.24 mM KH2PO4, 10 mM glucose, 2 mM MgSO4, 2.5 mM CaCl2, 5 mM KCl, 25.6 mM NaHCO3) at a flow rate of 1.8 ml/min. Freshly prepared slices were allowed to equilibrate for at least one hour before recording. Field potentials were obtained from stratum radiatum of CA1 using glass microelectrodes (0.8-1.2 MΩ) filled with aCSF. The Schaffer collateral was stimulated by a bipolar tungsten electrode (0.5 MO, Science Products GmbH, Germany). Constant voltage biphasic pulses (0.1 ms/phase; range 1-5 V) were applied once per minute at an intensity yielding 30% of the fEPSP maximum. LTP was induced by 2 trains of 100 Hz (1 sec/train with 10 sec intertrain intervall) using the same intensity and pulse length. […] Signals were digitized by a Power CED 1401 and analyzed using the software Signal 2.14 (Cambridge Electronic Design Ltd., Cambridge). For statistical comparison data were analyzed by 2-way repeated measures ANOVA using SAS.

[8] = tested on: APP/Lo mice; test: Novel object recognition task after active immunization of APP/Lo mice; type: in vivo, mouse; settings: for RI compared with mice treated with Aβ(1-42) monomer or vehicle: P<0.01, ANOVA, post-hoc Holm-Sidak t-test; for Short term memory for objects: active immunization
Text: APP [V717I] C57BI×FVB female mice (n=36; 6 weeks old) were used for this study (Moechars et al., 1999). All mice were housed and bred in the animal housing facilities of the Catholic University Leuven, Campus Gasthuisberg, in accordance with the Belgian ethical law on housing, breeding and handling laboratory animals.
They were genotyped by polymerase chain reaction (PCR) at the age of 3 weeks and were double checked by a second PCR at the onset of the study. All mice were blind randomised, age-matched and allocated randomly to a treatment. Animals were re-caged by treatment group one day before the onset of the study in order to allow them to familiarize to the new cage context. […] The food was stored under dry and cool conditions in a well-ventilated storage room. The amount of water and food was checked daily, supplied when necessary and standard refreshed twice a week. Mice were housed under a reversed day-night rhythm: 14 hours light/10 hours darkness, light starting at 7 p.m., in standard metal cages type RVS T2 (area of 540 cm^2) equipped with solid floors and layer of bedding litter.
The first injection contained 50% (v/v) complete Freund's Adjuvants (Difco Laboratories, Detroit, Mich., USA, ref no 263810) while the boost injections contained 50% (v/v) incomplete Freund's Adjuvant (Difco Laboratories, Detroit, Mich., USA, ref no 263910). Administration of compounds was performed every 3 weeks during 3 months (at week 0/3/6/9/12). • Novel object recognition task in immunized mice:
After the last injection all mice underwent a novel objection recognition task. The protocol used followed the method as described by Dewachter I. et al., Journal of Neuroscience, 2002, 22(9):3445-3453. Mice were familiarized for one hour to a Plexiglas open-field box (52×52×40 cm) with black vertical walls and a translucent floor, dimly illuminated by a lamp placed underneath the box. The next day the animals were placed in the same box and submitted to a 10 minutes acquisition trial. During this trial mice were placed individually in the open field in the presence of object A (blue ball or red cube, similar sized of ±4 cm), and the duration (timeAA) and the frequency (FreqAA) exploring object A (when the animals snout was directed towards the object at a distance of <1 cm and the mice were actively sniffing in the direction of the object) was recorded by a computerized system (Ethovision, Noldus information Technology, Wageningen, the Netherlands). During a 10 minutes retention trial (second trial) performed 3 hours later, a novel object (object B, red cube or blue ball) was placed together with the familiar object (object A) into the open field. (FreqA and FreqB and TimeA and TimeB, respectively).
The recognition index (RI), defined as the ratio of the duration in which the novel object was explored over the duration in which both objects were explored [TimeB/(TimeA+TimeB)×100], was used to measure non-spatial memory. The duration and frequency object A was explored during the acquisition trial (TimeAA and FreqAA) was used to measure curiosity.

Compound: docosatetranoic acid
- Induction of the characteristic 38/48 kDa Aβ(1-42) globulomer [1]: could not generate

Compound: CC/C=C\C/C=C\C/C=C\C/C=C\C/C=C\C/C=C\CCC(=O)O [docosahexanoic acid]
- Induction of the characteristic 38/48 kDa Aβ(1-42) globulomer [1]: could not generate

Compound: Aβ(1-42) globulomer: soluble, globular, non-covalent association of about 12 Aβ(1-42) peptides generated from synthetic peptide with SDS
- Binding to hippocampal neurons ([2]; 200 nM based on monomer (17 nM globulomer), 15 min, 37° C.): strong binding
- Hippocampal neurons binding globulomer ([2]; DIV8): −1%
- Stable in PBS ([3]; PBS, ambient temperature and 37° C.): at least 4 days
- Globulomer structure maintained without disassembly or further polymerization to fibrils ([3]; in vitro, physiological temperature (37° C.)): up to 4 days
- Binding to cells of the ventricle walls ([4]; injection into ventricle): rapid and persistent binding
- Cell toxicity along the ventricle wall (cell density) ([4]; injection into ventricle): without obvious cell toxicity
- Diffusion from ependyme into underlying brain tissue ([4]; injection into ventricle): without detectable diffusion
- Presence in cerebrospinal fluid after injection ([4]; injection into ventricle, data not shown): completely disappeared
- Tissue penetration ([4]; intracerebral injection): Poor tissue penetration
- Binding to neuronal cell-lines [5]: negative
- Binding to glia [6]: did not bind
- Time after tetanization at which potentiation was significantly impaired (as early as) ([7]; 42 nM, p<0.05): 5 min
- High frequency stimulation-induced LTP ([7]; 42 nM, rat brain slices): completely blocks; also recorded: complete block
- Basic synaptic functioning (input/output relation) ([7]; treated versus untreated slices): not impaired
- RI compared with mice treated with Aβ(1-42) monomer or vehicle [8]: significantly higher
- Short term memory for objects [8]: selectively improved

Compound: CCCCCCCCCCCC(=O)O [lauric acid]
- Induction of the characteristic 38/48 kDa Aβ(1-42) globulomer [1]: induced

Compound: CCCCCCCC/C=C\CCCCCCCC(=O)O [oleic acid]
- Induction of the characteristic 38/48 kDa Aβ(1-42) globulomer [1]: induced

Compound: Aβ(20-42) globulomer: truncated globulomer from Aβ(20-42) peptide or thermolysin proteolysis of Aβ(1-42) globulomer (FAEDVGSNKGAIIGLMVGGVVIA; also: globulomer (oligomeric assembly))
- RI compared with mice treated with Aβ(1-42) monomer or vehicle [8]: significantly higher
- Short term memory for objects [8]: selectively improved
- Recognition index (RI) ([8]; second encounter, 3 hours after acquisition, P<0.01 vs chance level): more than 50%

Compound: CC/C=C\C/C=C\C/C=C\C/C=C\C/C=C\CCCC(=O)O [eicosapentanoic acid]
- Induction of the characteristic 38/48 kDa Aβ(1-42) globulomer [1]: created a partly shifted oligomer

Compound: CCCCC/C=C\C/C=C\CCCCCCCC(=O)O [linoleic acid]
- Induction of the characteristic 38/48 kDa Aβ(1-42) globulomer [1]: could not generate

Compound: CCCCC/C=C\C/C=C\C/C=C\C/C=C\CCCC(=O)O [arachidonic acid]
- Induction of the characteristic 38/48 kDa Aβ(1-42) globulomer [1]: induced
